Assay results taken from patent US10988466B2, “Heterocyclic derivatives useful as SHP2 inhibitors” (Jacobio Pharmaceuticals Co., Ltd., priority 2017, dated 2021).

Target: T1, SHP2 (Homo sapiens, UniProt Q06124)
T1 sequence (Q06124 1-593): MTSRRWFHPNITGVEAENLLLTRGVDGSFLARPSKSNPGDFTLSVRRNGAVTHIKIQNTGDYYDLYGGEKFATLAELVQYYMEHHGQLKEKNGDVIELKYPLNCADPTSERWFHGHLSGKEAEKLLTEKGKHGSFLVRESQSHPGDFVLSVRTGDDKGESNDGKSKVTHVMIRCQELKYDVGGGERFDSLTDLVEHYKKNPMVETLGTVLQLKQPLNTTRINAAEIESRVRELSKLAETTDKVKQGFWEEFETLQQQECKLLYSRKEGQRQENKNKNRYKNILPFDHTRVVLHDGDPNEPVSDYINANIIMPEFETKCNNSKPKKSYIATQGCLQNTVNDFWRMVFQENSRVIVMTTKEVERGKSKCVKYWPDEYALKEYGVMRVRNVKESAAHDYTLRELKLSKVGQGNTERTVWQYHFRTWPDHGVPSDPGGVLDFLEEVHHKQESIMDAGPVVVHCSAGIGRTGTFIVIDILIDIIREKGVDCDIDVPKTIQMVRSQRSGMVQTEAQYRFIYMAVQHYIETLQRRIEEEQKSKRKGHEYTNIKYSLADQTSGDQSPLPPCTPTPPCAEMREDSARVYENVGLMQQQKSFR
Experiment: biochemical
Settings: read-out: SHP2 inhibition (%)@0.1 μM
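Also: compounds preincubated 30 min at room temperature in the assay mixture, activity referenced to a 0.5% (v/v) DMSO control taken as 100%, run in triplicate.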

inhibition at 0.1 µM [%]	SMILES
83	N[C@@H]1c2cccnc2CC12CCN(c1cnc(Sc3cc(F)ncc3Cl)cn1)CC2 [Example 101, (S)-1′-(5-((5-chloro-2-fluoro-pyridin-4-yl)thio)pyrazin-2-yl)-5,7-dihydrospiro[cyclopenta [b]pyridine-6,4′-piperidin]-5-amine]
69	NC(=O)Nc1ccc2c(c1)[C@@H](N)C1(CCN(c3cnc(Sc4ccnc(N)c4Cl)c(N)n3)CC1)C2 [Example 46, (S)-1-(1-amino-1′-(6-amino-5-((2-amino-3-chloropyridin-4-yl)thio)pyrazin-2-yl)-1,3-dihydrospiro [indene-2,4′-piperidin]-6-yl)urea]
78	Nc1nc(N2CCC3(CC2)Cc2ccccc2[C@H]3N)cnc1Sc1ccnc(O)c1Cl [Example 134, (S)-4-((3-amino-5-(1-amino-1,3-dihydrospiro[indene-2,4′-piperidin]-1′-yl)pyrazin-2-yl)thio)-3-chloropyridin-2-ol]
80	Nc1nc(N2CCC3(CC2)Cc2ncc(Cl)cc2[C@H]3N)cnc1Sc1ccnc(N)c1Cl [Example 73, (S)-1′-(6-amino-5-((2-amino-3-chloropyridin-4-yl)thio)pyrazin-2-yl)-3-chloro-5,7-dihydro-spiro[cyclopenta[b]pyridine-6,4′-piperidin]-5-amine]
74	Nc1nc(N2CCC3(CC2)Cc2ccc(F)c(F)c2[C@H]3N)cnc1Sc1ccnc(N)c1Cl [Example 40, (S)-1′-(6-amino-5-((2-amino-3-chloropyridin-4-yl)thio)pyrazin-2-yl)-6,7-difluoro-1,3-dihydro-spiro[indene-2,4′-piperidin]-1-amine]
16	CN1CCN(c2ccc3c(c2)[C@@H](N)C2(CCN(c4cnc(Sc5ccnc(N)c5Cl)c(N)n4)CC2)C3)CC1 [Example 75, (S)-1′-(6-amino-5-((2-amino-3-chloropyridin-4-yl)thio)pyrazin-2-yl)-6-(4-methylpiperazin-1-yl)-1,3-dihydrospiro [indene-2,4′-piperidin]-1-amine]
81	Nc1nc(N2CCC3(CC2)Cc2cc(Br)ccc2[C@H]3N)cnc1Sc1ccnc(N)c1Cl [Example 47, (S)-1′-(6-amino-5-((2-amino-3-chloropyridin-4-yl)thio)pyrazin-2-yl)-5-bromo-1,3-dihydro-spiro[indene-2,4′-piperidin]-1-amine]
35	Nc1nc(N2CCC3(CC2)Cc2ccccc2[C@@H]3N)cnc1Sc1ccnc(N)c1Cl [Example 18, (R)-1′-(6-amino-5-((2-amino-3-chloropyridin-4-yl)thio)pyrazin-2-yl)-1,3-dihydrospiro[indene-2,4′-piperidin]-1-amine]
30	Nc1nc(N2CCC3(CC2)Cn2c(cccc2=O)[C@H]3N)cnc1Sc1ccnc(N)c1Cl [Example 70, (S)-1-amino-1′-(6-amino-5-((2-amino-3-chloropyridin-4-yl)thio)pyrazin-2-yl)-3H-spiro[indolizine-2,4′-piperidin]-5(1H)-one]
83	Nc1nc(N2CCC3(CC2)Cc2ncccc2[C@H]3N)cnc1Sc1ccnc(O)c1Cl [Example 136, (S)-4-((3-amino-5-(5-amino-5,7-dihydrospiro[cyclopenta[b]pyridine-6,4′-piperidin]-1′-yl)pyrazin-2-yl)thio)-3-chloropyridin-2-ol]
82	Nc1nc(N2CCC3(CC2)Cc2c(O)cccc2[C@H]3N)cnc1Sc1ccnc(N)c1Cl [Example 138, (S)-1-amino-1′-(6-amino-5-((2-amino-3-chloropyridin-4-yl)thio)pyrazin-2-yl)-1,3-dihydrospiro[indene-2,4′-piperidin]-4-ol]
74	COc1ccc2c(c1)CC1(CCN(c3cnc(Sc4ccnc(N)c4Cl)c(N)n3)CC1)[C@@H]2N [Example 11, (S)-1′-(6-amino-5-((2-amino-3-chloropyridin-4-yl)thio)pyrazin-2-yl)-5-methoxy-1,3-dihydrospiro [indene-2,4′-piperidin]-1-amine]
77	Nc1nc(N2CCC3(CC2)Cc2ncccc2[C@H]3N)cnc1Sc1cnccc1Cl [Example 107, (S)-1′-(6-amino-5-((4-chloropyridin-3-yl)thio)pyrazin-2-yl)-5,7-dihydrospiro[cyclo-penta[b]pyridine-6,4′-piperidin]-5-amine]
67	CC(=O)N1CC(F)(F)c2c(Sc3ncc(N4CCC5(CC4)Cc4ccccc4[C@H]5N)nc3N)cccc21 [Example 78, (S)-1-(4-((3-amino-5-(1-amino-1,3-dihydrospiro[indene-2,4′-piperidin]-1′-yl)pyrazin-2-yl)thio)-3,3-difluoroindolin-1-yl)ethan-1-one]
86	Nc1cccc(Sc2cnc(N3CCC4(CC3)Cc3ncccc3[C@H]4N)cn2)c1Cl [Example 97, (S)-1′-(5-((3-amino-2-chlorophenyl)thio)pyrazin-2-yl)-5,7-dihydro-spiro[cyclopenta [b]pyridine-6,4′-piperidin]-5-amine]
71	Cc1ccc2c(c1)[C@@H](N)C1(CCN(c3cnc(Sc4ccnc(N)c4Cl)c(N)n3)CC1)C2 [Example 23, (S)-1′-(6-amino-5-((2-amino-3-chloropyridin-4-yl)thio)pyrazin-2-yl)-6-methyl-1,3-dihydro-spiro[indene-2,4′-piperidin]-1-amine]
79	Nc1nc(N2CCC3(CC2)Cc2ncccc2[C@H]3N)cnc1Sc1ccnc(F)c1Cl [Example 116, (S)-1′-(6-amino-5-((3-chloro-2-fluoropyridin-4-yl)thio)pyrazin-2-yl)-5,7-dihydrospiro [cyclopenta[b]pyridine-6,4′-piperidin]-5-amine]
61	N[C@@H]1c2cccnc2CC12CCN(c1cnc(Sc3c(Cl)cncc3Cl)cn1)CC2 [Example 110, (S)-1′-(5-((3,5-dichloropyridin-4-yl)thio)pyrazin-2-yl)-5,7-dihydrospiro [cyclopenta[b]pyridine-6,4′-piperidin]-5-amine]
30	Nc1nc(N2CCC3(CC2)Cc2cnccc2[C@H]3N)cnc1Sc1ccnc(N)c1Cl [Example 22, (S)-1′-(6-amino-5-((2-amino-3-chloropyridin-4-yl)thio)pyrazin-2-yl)-5,7-dihydrospiro [cyclopenta[c]pyridine-6,4′-piperidin]-5-amine]
84	Nc1nc(N2CCC3(CC2)Cc2ccccc2C3N)cnc1Sc1ccnc(N)c1Cl (centres unmarked) [Example 124, 1′-(6-amino-5-((2-amino-3-chloropyridin-4-yl)thio)pyrazin-2-yl)-1,3-dihydrospiro [indene-2,4′-piperidin]-1-amine]
58	CC(C)(C)c1cc2c(s1)CC1(CCN(c3cnc(Sc4ccnc(N)c4Cl)c(N)n3)CC1)[C@@H]2N [Example 79, (S)-1′-(6-amino-5-((2-amino-3-chloropyridin-4-yl)thio)pyrazin-2-yl)-2-(tert-butyl)-4,6-dihydro-spiro[cyclopenta [b]thiophene-5,4′-piperidin]-4-amine]
76	CC(=O)N1CC(F)(F)c2c(Sc3ncc(N4CCC5(CC4)Cc4ncccc4[C@H]5N)nc3N)cccc21 [Example 103, (S)-1-(4-((3-amino-5-(5-amino-5,7-dihydrospiro [cyclopenta[b]pyridine-6,4′-piperidin]-1′-yl)pyrazin-2-yl)thio)-3,3-difluoroindolin-1-yl) ethan-1-one]
83	Nc1nc(N2CCC3(CC2)Cc2ccc(Cl)cc2[C@H]3N)cnc1Sc1ccnc(N)c1Cl [Example 15, (S)-1′-(6-amino-5-((2-amino-3-chloropyridin-4-yl)thio)pyrazin-2-yl)-6-chloro-1,3-dihydrospiro[indene-2,4′-piperidin]-1-amine]
84	Nc1cccc(Sc2cnc(N3CCC4(CC3)Cc3ncccc3C4N)cn2)c1Cl (centres unmarked) [Example 128, 1′-(5-((3-amino-2-chlorophenyl)thio)pyrazin-2-yl)-5,7-dihydrospiro [cyclopenta[b]pyridine-6,4′-piperidin]-5-amine]
63	Nc1nc(N2CCC3(CC2)[C@H](N)c2ccccc2[C@H]3N)cnc1Sc1ccnc(N)c1Cl [Example 67, (1R,3R)-1′-(6-amino-5-((2-amino-3-chloropyridin-4-yl)thio)pyrazin-2-yl)-1,3-dihydrospiro[indene-2,4′-piperidine]-1,3-diamine]
81	Nc1nc(N2CCC3(CC2)Cc2ncccc2[C@H]3N)cnc1Sc1cc(F)ncc1Cl [Example 102, (S)-1′-(6-amino-5-((5-chloro-2-fluoropyridin-4-yl)thio)pyrazin-2-yl)-5,7-dihydro-spiro[cyclopenta[b]pyridine-6,4′-piperidin]-5-amine]
86	COc1cc2c(cn1)[C@@H](N)C1(CCN(c3cnc(Sc4ccnc(N)c4Cl)c(N)n3)CC1)C2 [Example 20]
28	Nc1nc(N2CCC3(CC2)Cc2ccccc2/C3=N\O)cnc1Sc1ccnc(N)c1Cl [Example 149, (Z)-1′-(6-amino-5-((2-amino-3-chloropyridin-4-yl)thio)pyrazin-2-yl) spiro[indene-2,4′-piperidin]-1(3H)-one oxime]
49	N#Cc1cc2c(cc1F)CC1(CCN(c3cnc(Sc4ccnc(N)c4Cl)c(N)n3)CC1)[C@@H]2N [Example 42, (S)-1-amino-1′-(6-amino-5-((2-amino-3-chloropyridin-4-yl)thio)pyrazin-2-yl)-5-fluoro-1,3-dihydro-spiro[indene-2, 4′-piperidine]-6-carbonitrile]
